Experimental data published in patent publication US20100075907A1, “NEUROMEDIN U RECEPTOR AGONISTS AND USES THEREOF” (priority 2006, published 2010).
Non-standard residues stand in square brackets, D forms with d. Residues, ends and D or L forms follow the SMILES beside them.

Experiments:
rat NMUR1-TTG = target: T1, rat NMUR1-TTG (Rattus norvegicus, UniProt Q9JJI5); assay: FLIPR calcium mobilization assay, rat NMUR1-TTG; format: cell-based; set-up: expressed in transfected cells; host or cells: FLP-In CHO or HEK-293 FLP-In cells (pcDNA5); conditions: functional data, rat R1-TTG
T1 sequence (Q9JJI5 1-425): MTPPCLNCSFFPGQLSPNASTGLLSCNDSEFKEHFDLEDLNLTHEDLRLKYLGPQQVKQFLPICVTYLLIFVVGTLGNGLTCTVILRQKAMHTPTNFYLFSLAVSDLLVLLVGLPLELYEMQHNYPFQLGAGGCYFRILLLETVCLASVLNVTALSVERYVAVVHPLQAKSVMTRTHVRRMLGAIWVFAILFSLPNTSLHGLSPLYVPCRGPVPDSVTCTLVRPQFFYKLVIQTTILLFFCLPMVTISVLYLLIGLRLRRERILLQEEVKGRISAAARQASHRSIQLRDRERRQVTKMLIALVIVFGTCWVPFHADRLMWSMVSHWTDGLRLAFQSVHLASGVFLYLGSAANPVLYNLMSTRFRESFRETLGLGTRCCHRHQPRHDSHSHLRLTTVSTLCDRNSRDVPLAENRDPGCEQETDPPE

in vitro = conditions: human, plasma

Compound	IC50 (rat NMUR1-TTG)	half-life at 1 μM (in vitro)
CC(C)C[C@@H](NC(=O)[C@H](Cc1ccccc1)NC(=O)[C@H](Cc1ccc(O)cc1)NC(=O)CNC(=O)[C@H](CCCNC(=N)N)NC(=O)[C@H](CO)NC(=O)[C@H](CCC(N)=O)NC(=O)[C@H](CO)NC(=O)[C@H](C)NC(=O)[C@H](Cc1ccccc1)NC(=O)[C@@H]1CCCN1C(=O)[C@H](CO)NC(=O)[C@H](CCC(N)=O)NC(=O)[C@H](Cc1ccccc1)NC(=O)[C@H](CCC(=O)O)NC(=O)[C@H](CCC(=O)O)NC(=O)[C@H](CC(=O)O)NC(=O)[C@@H](NC(=O)[C@H](CCCNC(=N)N)NC(=O)[C@@H](N)Cc1ccccc1)C(C)C)C(=O)N[C@@H](Cc1c[nH]c2ccccc12)C(=O)N[C@@H](CCCNC(=N)N)C(=O)N1CCC[C@H]1C(=O)N[C@@H](CCCNC(=N)N)C(=O)N[C@@H](CC(N)=O)C(N)=O [Agonist H] (H-FRVDEEFQSPFASQSRGYF[dL]WRPRN-NH2; N-terminus assumed)	153 nM	
H-FRVDEEFQSPFASQSRGYFLFRPRN-NH2 [hNMU-25, reference compound]	1 nM	< 16 h
